For one data set, the target named is MMP9 (Homo sapiens, UniProt P14780). The data set is described as follows: Enzymolysis assay of the linker-payload by MMP9 (LC-MS). The note with it: linker-payload 100 µmol, activated MMP9 0.2 µg/mL, 37°C, 24 h. It is filed as biochemical. The method, then:
MMP9 having a final concentration of 200 µg/mL was mixed with 4 mM APMA at a ratio of 1:1 and placed in a 37°C water bath and incubated for 24 h to activate the MMP9 enzyme solution. Subsequently, the linker-payload having a final concentration of 100 µmol was incubated with the activated MMP9 solution having a final concentration of 0.2 µg/mL in a 37°C water bath for 24 h. After the reaction was complete, LC-MS analysis was performed.

Another data set addresses T1, MMP2 (Homo sapiens, UniProt P08253).
T1 sequence (P08253 110-660): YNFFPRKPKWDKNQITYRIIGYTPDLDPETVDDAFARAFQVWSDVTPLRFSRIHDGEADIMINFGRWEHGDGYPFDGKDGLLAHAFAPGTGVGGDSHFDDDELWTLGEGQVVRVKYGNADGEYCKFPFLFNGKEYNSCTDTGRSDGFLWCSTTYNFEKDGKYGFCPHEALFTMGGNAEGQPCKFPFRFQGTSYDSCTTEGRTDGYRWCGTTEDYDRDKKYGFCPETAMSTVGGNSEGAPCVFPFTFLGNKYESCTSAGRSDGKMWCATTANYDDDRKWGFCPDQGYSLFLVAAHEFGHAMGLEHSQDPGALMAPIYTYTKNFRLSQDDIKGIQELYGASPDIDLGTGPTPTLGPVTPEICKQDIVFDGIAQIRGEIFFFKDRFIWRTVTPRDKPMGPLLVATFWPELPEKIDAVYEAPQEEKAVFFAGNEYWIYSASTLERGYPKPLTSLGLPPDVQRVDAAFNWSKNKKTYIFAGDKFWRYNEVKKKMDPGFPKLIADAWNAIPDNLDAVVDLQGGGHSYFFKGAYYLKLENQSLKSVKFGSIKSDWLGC
The data set is described as follows: Enzymolysis assay of the linker-payload by MMP2 (LC-MS). Type of data set: biochemical. The note with it: linker-payload 100 µmol, activated MMP2 1 µg/mL, 37°C, 24 h. The method, then:
MMP2 having a final concentration of 200 µg/mL was mixed with 4 mM APMA at a ratio of 1:1 and placed in a 37°C water bath and incubated for 24 h to activate the MMP2 enzyme solution. Subsequently, the linker-payload having a final concentration of 100 µmol was incubated with the activated MMP2 solution having a final concentration of 1 µg/mL in a 37°C water bath for 24 h. After the reaction was complete, LC-MS analysis was performed.

For data set [1] the following is noted: background statement; cited from earlier work.

Numbered stars: 1 amine (or outer) side, 2 acyl side, 3 side chain; on linkers, the order of the positions; unused ones are H or OH. Square brackets hold non-standard residues; d marks the D form. Peptide text beside a SMILES is read from it. * marks the point of attachment. Exatecan = CC[C@@]1(O)C(=O)OCc2c1cc1n(c2=O)Cc2c-1nc1cc(F)c(C)c3c1c2[C@@H](N*)CC3; Hexanoyl(6-maleimido) = O=C1C=CC(=O)N1CCCCCC(=O)*; PABC = O=C(OCc1ccc(N[*:1])cc1)[*:2]; Cit = NC(=O)NCCC[C@H](N)C(=O)O

Sequence of MMP9 (P14780 107-707 limits assumed, species assumed): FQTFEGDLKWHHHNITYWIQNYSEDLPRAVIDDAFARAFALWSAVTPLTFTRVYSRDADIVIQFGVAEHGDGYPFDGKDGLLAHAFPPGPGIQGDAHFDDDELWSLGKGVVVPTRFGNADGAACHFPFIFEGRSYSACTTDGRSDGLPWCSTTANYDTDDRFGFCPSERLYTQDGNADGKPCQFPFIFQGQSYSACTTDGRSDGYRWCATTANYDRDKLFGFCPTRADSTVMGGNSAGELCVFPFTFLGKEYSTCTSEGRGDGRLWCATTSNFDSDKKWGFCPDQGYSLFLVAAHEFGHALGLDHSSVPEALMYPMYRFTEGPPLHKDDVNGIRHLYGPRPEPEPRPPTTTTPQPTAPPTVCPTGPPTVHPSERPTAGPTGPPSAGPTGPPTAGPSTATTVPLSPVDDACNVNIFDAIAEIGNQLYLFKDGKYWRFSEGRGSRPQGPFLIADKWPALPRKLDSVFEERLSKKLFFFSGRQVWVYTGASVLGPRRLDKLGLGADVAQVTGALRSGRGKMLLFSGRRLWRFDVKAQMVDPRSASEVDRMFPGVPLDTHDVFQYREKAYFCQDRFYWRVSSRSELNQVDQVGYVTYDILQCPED

Turning to `CC[C@@]1(O)C(=O)OCc2c1cc1n(c2=O)Cc2c-1nc1cc(F)c(C)c3c1c2[C@@H](NC(=O)OCc1ccc(NC(=O)[C@H](CCCNC(N)=O)NC(=O)[C@@H](NC(=O)[C@H](CC(C)C)NC(=O)[C@H](CO)NC(=O)[C@H](C)NC(=O)[C@@H]2CCCN2C(=O)CCCCCN2C(=O)C=CC2=O)C(C)C)cc1)CC3` [Compound L065-P005, MC-PASLVCit-PAB-DX8951] ({Hexanoyl(6-maleimido)}-PASLV[Cit][PABC]-Exatecan), at MMP9, the “MMP9 enzymolysis efficiency (%)” value was 27.13%. Further, the “MMP2 enzymolysis efficiency (%)” value on MMP2 turned out to be 32.73%.

For Trodelvy, in data set [1], the half-life in plasma entry was “less than 24 hours”.

The values above are taken from patent EP4796557A1, “POLYPEPTIDE, BIOACTIVE CONJUGATE, AND PREPARATION METHOD THEREFOR AND USE THEREOF” (priority 2023, dated 2025).
